In US8026245B2, “HIV replication inhibiting purine derivatives” (Janssen Pharmaceutica N.V., priority 2003, dated 2011):

Columns and labels:
HIV-1 [1] = experiment: microbe, parasite or virus in culture; conditions: Human immunodeficiency virus 1, MT4, read-out: pEC50 (−logEC50) (converted)
HIV-1 [2] = conditions: for pSI (pEC50 − pCC50): Method B, selectivity index, ratio of CC50 to EC50
[3] = Method B: cytotoxicity in mock-infected MT-4 cells engineered with GFP under a constitutional promotor; assay type: cell-based; conditions: human; Method B; mock-infected MT-4 cells with GFP, fluorescence reduced by 50%; read-out: pCC50 (−logCC50) (converted)
Procedure: (§1) In these cells, engineered with GFP (and an HIV-specific promotor), ongoing HIV-infection was measured fluorometrically. Cytotoxicity is measured in the same cells, but engineered with GFP under a constitutional promotor. The infection (or inhibition thereof) of HIV infected cells and the fluorescence of mock-infected cells is assessed by the fluorescent GFP signal generated by the two above mentioned cell lines.
(§2) The 50% cytotoxic concentration (CC50 in μM) was defined as the concentration of compound that reduced fluorescence of the mock-infected cells by 50%.

mock-infected MT-4 cells = experiment: as above; assay type: cell-based
Procedure: as §1, §2

Structure (SMILES) | EC50 (HIV-1 [1]) | pSI (pEC50 − pCC50) (HIV-1 [2]) | CC50 [3] | pEC50 (−logEC50) (HIV-1 [2]) | pCC50 (−logCC50) (mock-infected MT-4 cells)
CCN(C)C(=O)/C=C/c1cc(C)c(Oc2nc(Nc3ccc(C#N)cc3)nc3ncn(Cc4ccc(OC)cc4)c23)c(C)c1 [Compound 1] | 3.98 nM | <−3.8 | > 25100 nM |  | 
COc1ccc(Cn2cnc3c(Nc4c(C)cc(/C=C/C#N)cc4OC)nc(Nc4ccc(C#N)cc4)nc32)cc1 [Compound 2] | 1 nM | −3.7 | 5010 nM |  | 
COc1ccc(Cn2cnc3c(Nc4c(C)cc(/C=C/C#N)cc4C)nc(Nc4ccc(C#N)cc4)nc32)cc1 [Compound 3] | 3.16 nM | −2.6 | 1260 nM |  | 
COc1ccc(Cn2cnc3nc(Nc4ccc(C#N)cc4)nc(Oc4c(C)cc(/C=C/C#N)cc4C)c32)cc1 [Compound 4] | 3.98 nM | −3.4 | 10000 nM |  | 
CCN(C)C(=O)/C=C/c1cc(C)c(Oc2nc(Nc3ccc(C#N)cc3)nc3nc[nH]c23)c(C)c1 [Compound 5] | 3.16 nM | −3.2 | 5010 nM |  | 
COc1cc(/C=C/C#N)cc(C)c1Nc1nc(Nc2ccc(C#N)cc2)nc2[nH]cnc12 [Compound 6] | 1 nM | −2.9 | 794 nM |  | 
COc1ccc(Cn2cnc3c(Nc4c(C)cc(CCC#N)cc4C)nc(Nc4ccc(C#N)cc4)nc32)cc1 [Compound 13] |  | −3.1 |  | 8.2 | 5.2
COc1ccc(Cn2cnc3c(Nc4c(C)cc(/C=C/C#N)cc4Cl)nc(Nc4ccc(C#N)cc4)nc32)cc1 [Compound 14] |  | −2.8 |  | 8.3 | 5.5
COc1ccc(Cn2cnc3nc(Nc4ccc(C#N)cc4)nc(Oc4c(OC)cc(/C=C/C#N)cc4OC)c32)cc1 [Compound 19] |  | <−4.6 |  | 9.2 | <4.6
COc1ccc(Cn2cnc3nc(Nc4ccc(C#N)cc4)nc(Oc4c(C)cc(/C=C/C(N)=O)cc4C)c32)cc1 [Compound 20] |  | −3.2 |  | 8.4 | 5.2
COc1ccc(Cn2cnc3nc(Nc4ccc(C#N)cc4)nc(Oc4c(C)cc(/C=C/C(=O)N(C)C)cc4C)c32)cc1 [Compound 21] |  | −3.6 |  | 8.4 | 4.8
COc1cc(OC)c(Nc2nc(Nc3ccc(C#N)cc3)nc3[nH]cnc23)c(OC)c1 [Compound 26] |  | −4.3 |  | 9.3 | 5.0
Cc1cc(C#N)cc(C)c1Nc1nc(Nc2ccc(C#N)cc2)nc2[nH]cnc12 [Compound 29] |  | −3.8 |  | 8.7 | 4.9
CCOc1cc(C)c(Nc2nc(Nc3ccc(C#N)cc3)nc3[nH]cnc23)c(C)c1 [Compound 30] |  | −4.0 |  | 8.8 | 4.8
Cc1cc(OCC#N)cc(C)c1Nc1nc(Nc2ccc(C#N)cc2)nc2[nH]cnc12 [Compound 31] |  | <−4.7 |  | 9.3 | <4.6
Cc1cc(CCC#N)cc(C)c1Nc1nc(Nc2ccc(C#N)cc2)nc2[nH]cnc12 [Compound 32] |  | −3.5 |  | 8.3 | 4.8
Cc1cc(/C=C/C#N)cc(C)c1Oc1nc(Nc2ccc(C#N)cc2)nc2[nH]cnc12 [Compound 33] |  | −3.5 |  | 8.5 | 5.0
Cc1cc(/C=C/C#N)cc(C)c1Nc1nc(Nc2ccc(C#N)cc2)nc2[nH]cnc12 [Compound 34] |  | −3.7 |  | 8.5 | 4.8

Structure (SMILES) | EC50 (HIV-1 [1]) | pSI (pEC50 − pCC50) (HIV-1 [2]) | CC50 [3] | pEC50 (−logEC50) (HIV-1 [2]) | pCC50 (−logCC50) (mock-infected MT-4 cells)
COc1cc(/C=C/C#N)cc(OC)c1Oc1nc(Nc2ccc(C#N)cc2)nc2[nH]cnc12 [Compound 35] |  | −3.5 |  | 8.4 | 4.9
Cc1cc(/C=C/C(=O)N(C)C)cc(C)c1Nc1nc(Nc2ccc(C#N)cc2)nc2[nH]cnc12 [Compound 37] |  | −2.7 |  | 8.1 | 5.4
Cc1cc(/C=C/C#N)cc(C)c1Nc1nc(Nc2ccc(C#N)cc2)nc2ncn(C)c12 [Compound 44] |  | 3.3 |  |  | 4.7
Cc1cc(C)c(Nc2nc(Nc3ccc(C#N)cc3)nc3c2ncn3C)c(C)c1 [Compound 45] |  | >4.6 |  | 9.2 | <4.6
Cc1cc(C#N)cc(C)c1Nc1nc(Nc2ccc(C#N)cc2)nc2c1ncn2C [Compound 46] |  | >4.8 |  | 9.4 | <4.6
COc1cc(/C=C/C#N)cc(C)c1Nc1nc(Nc2ccc(C#N)cc2)nc2c1ncn2C(C)C [Compound 49] |  | 3.5 |  | 9.0 | 5.5
COc1cc(/C=C/C#N)cc(C)c1Nc1nc(Nc2ccc(C#N)cc2)nc2c1ncn2CCO [Compound 50] |  | 3.4 |  | 9.2 | 5.8
COc1cc(/C=C/C#N)cc(Cl)c1Nc1nc(Nc2ccc(C#N)cc2)nc2[nH]cnc12 [Compound 53] |  | 2.6 |  | 8.7 | 6.1
Cc1cc(/C=C/C#N)cc(Cl)c1Nc1nc(Nc2ccc(C#N)cc2)nc2[nH]cnc12 [Compound 54] |  | 3.2 |  | 8.7 | 5.5
N#C/C=C/c1cc(Cl)c(Nc2nc(Nc3ccc(C#N)cc3)nc3[nH]cnc23)c(Cl)c1 [Compound 55] |  | 3.0 |  | 8.6 | 5.6
CC(=CC#N)c1cc(C)c(Nc2nc(Nc3ccc(C#N)cc3)nc3[nH]cnc23)c(C)c1 [Compound 56] |  | >3.8 |  | 8.4 | <4.6
CCC(=CC#N)c1cc(C)c(Nc2nc(Nc3ccc(C#N)cc3)nc3[nH]cnc23)c(C)c1 [Compound 58] |  | 3.2 |  | 8.3 | 5.1
CCC(=CC#N)c1cc(C)c(Nc2nc(Nc3ccc(C#N)cc3)nc3c2ncn3C)c(C)c1 [Compound 59] |  | >3.9 |  | 8.5 | <4.6
CCC(=CC#N)c1cc(C)c(Nc2nc(Nc3ccc(C#N)cc3)nc3c2ncn3CC#N)c(C)c1 [Compound 60] |  | 3.6 |  | 8.6 | 5.0
CC(C#N)=Cc1cc(C)c(Nc2nc(Nc3ccc(C#N)cc3)nc3[nH]cnc23)c(C)c1 [Compound 62] |  | >4.0 |  | 8.6 | <4.6
COc1cc(C=C(C)C#N)cc(C)c1Nc1nc(Nc2ccc(C#N)cc2)nc2[nH]cnc12 [Compound 63] |  | 3.3 |  | 8.4 | 5.1
CC(C#N)=Cc1cc(C)c(Nc2nc(Nc3ccc(C#N)cc3)nc3c2ncn3C)c(C)c1 [Compound 64] |  | >4.7 |  | 9.3 | <4.6
C/C(C#N)=C(/C)c1cc(C)c(Nc2nc(Nc3ccc(C#N)cc3)nc3[nH]cnc23)c(C)c1 [Compound 65] |  | 3.1 |  | 8.1 | 5.0
